The supplement of paper PMC10733146

Columns and labels:
Assay in all cases: viability relative to DMSO control (fraction); higher = less drug effect (more viable cells)
Details in all cases: 48 h
[1] = test system: primary AML patient cells (S056)
Method in brief: (§1)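 Viability was quantified by CellTiter-Glo luminescence and related to the median of 16 inner DMSO wells. Before that, primary mononuclear tumour cells, fresh or cryopreserved and Ficoll-isolated from blood or bone marrow or prepared from processed lymph node, were plated at 4 × 10^4 cells per well in 384-well plates containing pre-plated compounds at five concentrations, one well each. Plates were incubated in RPMI-1640 with penicillin/streptomycin, L-glutamine and human serum at 37 °C and 5% CO2 for 48 h.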

[2] = test system: primary AML patient cells (S091)
Method in brief: as §1

[3] = test system: primary AML patient cells (S089)
Method in brief: as §1

[4] = test system: primary DLBCL patient cells (S082)
Method in brief: as §1

[5] = test system: primary AML patient cells (S037)
Method in brief: as §1

[6] = test system: primary FL patient cells (S022)
Method in brief: as §1

[7] = test system: primary CLL patient cells (S031)
Method in brief: as §1

[8] = test system: primary AML patient cells (S009)
Method in brief: as §1

[9] = test system: primary MCL patient cells (S053)
Method in brief: as §1

[10] = test system: primary T-PLL patient cells (S008)
Method in brief: as §1

[11] = test system: primary AML patient cells (S055)
Method in brief: as §1

[12] = test system: primary MCL patient cells (S063)
Method in brief: as §1

[13] = test system: primary AML patient cells (S072)
Method in brief: as §1

[14] = test system: primary ALL patient cells (S048)
Method in brief: as §1

[15] = test system: primary AML patient cells (S006)
Method in brief: as §1

[16] = test system: primary AML patient cells (S012)
Method in brief: as §1

[17] = test system: primary FL patient cells (S087)
Method in brief: as §1

[18] = test system: primary MCL patient cells (S068)
Method in brief: as §1

[19] = test system: primary AML patient cells (S079)
Method in brief: as §1

[20] = test system: primary MCL patient cells (S041)
Method in brief: as §1

SMILES: CC(C)c1cc(C(=O)N2Cc3ccc(CN4CCN(C)CC4)cc3C2)c(O)cc1O [Onalespib]
- viability ([1]; 0.0032 µM): 0.743
- viability ([1]; 0.016 µM): 0.29
- viability ([1]; 0.08 µM): 0.142
- viability ([1]; 0.4 µM): 0.164
- viability ([1]; 2 µM): 0.174
- viability ([2]; 0.0032 µM): 1.14
- viability ([2]; 0.016 µM): 0.967
- viability ([2]; 0.08 µM): 0.733
- viability ([2]; 0.4 µM): 0.304
- viability ([2]; 2 µM): 0.234
- viability ([3]; 0.0032 µM): 1.17
- viability ([3]; 0.016 µM): 0.872
- viability ([3]; 0.08 µM): 0.234
- viability ([3]; 0.4 µM): 0.235
- viability ([3]; 2 µM): 0.173
- viability ([4]; 0.0032 µM): 0.967
- viability ([4]; 0.016 µM): 1.24
- viability ([4]; 0.08 µM): 1.03
- viability ([4]; 0.4 µM): 1.22
- viability ([4]; 2 µM): 0.961
- viability ([5]; 0.0032 µM): 0.914
- viability ([5]; 0.016 µM): 0.992
- viability ([5]; 0.08 µM): 0.887
- viability ([5]; 0.4 µM): 0.962
- viability ([5]; 2 µM): 0.916
- viability ([6]; 0.0032 µM): 0.868
- viability ([6]; 0.016 µM): 0.943
- viability ([6]; 0.08 µM): 0.705
- viability ([6]; 0.4 µM): 0.781
- viability ([6]; 2 µM): 0.757
- viability ([7]; 0.0032 µM): 0.896
- viability ([7]; 0.016 µM): 0.929
- viability ([7]; 0.08 µM): 0.432
- viability ([7]; 0.4 µM): 0.235
- viability ([7]; 2 µM): 0.246
- viability ([8]; 0.0032 µM): 1.15
- viability ([8]; 0.016 µM): 0.852
- viability ([8]; 0.08 µM): 0.686
- viability ([8]; 0.4 µM): 0.568
- viability ([8]; 2 µM): 0.648
- viability ([9]; 0.0032 µM): 0.837
- viability ([9]; 0.016 µM): 1.12
- viability ([9]; 0.08 µM): 0.356
- viability ([9]; 0.4 µM): 0.345
- viability ([9]; 2 µM): 0.306
- viability ([10]; 0.0032 µM): 1.1
- viability ([10]; 0.016 µM): 1.06
- viability ([10]; 0.08 µM): 1.06
- viability ([10]; 0.4 µM): 0.989
- viability ([10]; 2 µM): 0.993
- viability ([11]; 0.0032 µM): 0.96
- viability ([11]; 0.016 µM): 1.01
- viability ([11]; 0.08 µM): 0.566
- viability ([11]; 0.4 µM): 0.434
- viability ([11]; 2 µM): 0.389
- viability ([12]; 0.0032 µM): 0.9
- viability ([12]; 0.016 µM): 1.27
- viability ([12]; 0.08 µM): 0.447
- viability ([12]; 0.4 µM): 0.1
- viability ([12]; 2 µM): 0.0867
- viability ([13]; 0.0032 µM): 0.919
- viability ([13]; 0.016 µM): 1.02
- viability ([13]; 0.08 µM): 0.486
- viability ([13]; 0.4 µM): 0.422
- viability ([13]; 2 µM): 0.38
- viability ([14]; 0.0032 µM): 0.877
- viability ([14]; 0.016 µM): 0.847
- viability ([14]; 0.08 µM): 0.477
- viability ([14]; 0.4 µM): 0.574
- viability ([14]; 2 µM): 0.432
- viability ([15]; 0.0032 µM): 0.788
- viability ([15]; 0.016 µM): 0.312
- viability ([15]; 0.08 µM): 0.124
- viability ([15]; 0.4 µM): 0.213
- viability ([15]; 2 µM): 0.239
- viability ([16]; 0.0032 µM): 0.973
- viability ([16]; 0.016 µM): 1.02
- viability ([16]; 0.08 µM): 0.657
- viability ([16]; 0.4 µM): 0.139
- viability ([16]; 2 µM): 0.15
- viability ([17]; 0.0032 µM): 0.962
- viability ([17]; 0.016 µM): 1.02
- viability ([17]; 0.08 µM): 0.853
- viability ([17]; 0.4 µM): 0.84
- viability ([17]; 2 µM): 0.871
- viability ([18]; 0.0032 µM): 1.04
- viability ([18]; 0.016 µM): 1.44
- viability ([18]; 0.08 µM): 0.814
- viability ([18]; 0.4 µM): 0.497
- viability ([18]; 2 µM): 0.419
- viability ([19]; 0.0032 µM): 0.872
- viability ([19]; 0.016 µM): 0.888
- viability ([19]; 0.08 µM): 0.555
- viability ([19]; 0.4 µM): 0.381
- viability ([19]; 2 µM): 0.322
- viability ([20]; 0.0032 µM): 0.95
- viability ([20]; 0.016 µM): 1.05
- viability ([20]; 0.08 µM): 0.724
- viability ([20]; 0.4 µM): 0.53
- viability ([20]; 2 µM): 0.445
